In US20260297060A1, “COMPOUNDS FOR THE DEGRADATION OF MUTANT BRAF” (C4 THERAPEUTICS, INC., priority 2023, published 2026):
Read-outs that look alike come from different tables or passages of the source. Values belong to the compound of their own block, whether it stands above or below them.

What was measured:
BRAF V600E = molecular target: T1, BRAF V600E (Homo sapiens, UniProt P15056+Q96SW2, V600E); assay: BRAF V600E HiBiT Degradation Assay; assay type: cell-based
T1 construct: knock-in of the HiBiT tag to the endogenous BRAF V600E locus; host or cells: A375.10 (A375 clonal line, CRISPR HiBiT knock-in at the endogenous BRAF V600E locus)
Method in brief: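 Endogenous HiBiT knock-in on BRAF V600E in A375 cells (clone A375.10); 11-point half-log series, top 10 μM, 2, 6 or 24 h at 37° C. Lytic HiBiT luminescence, background-subtracted, normalized to DMSO; 4-parameter fit gives DC50, Emax (residual protein) and IP (inflection point).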

A375-NRAS^Q61K cells = assay: CTGlo Cell Viability Assay, A375-NRAS^Q61K (A375.11) cells, 96 hours; assay type: cell-based, human; settings: A375.11 (A375-NRAS^Q61K) cells; for CTGlo A375.11 96 hours Emax / Emax: lowest % viability achieved
Method in brief: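 Viability as CellTiter-Glo ATP luminescence after 96 h compound exposure at 37 °C; A375.11 (BRAF V600E/NRAS Q61K) cells at 250/well, top final concentration 10 μM in half-log steps. Signal was background-corrected and set relative to DMSO controls. A 4-parameter logistic fit gave GI50 (50% crossing) and Emax.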

[1] = A375.10 cells, BRAF V600E, 2 hours, inflection point, read-out: HiBiT-Degradation A375.10 BRAF 2 hours IP
[2] = A375.10 cells, BRAF V600E, 2 hours, read-out: HiBiT-Degradation A375.10 BRAF 2 hours DC50
[3] = A375.10 cells, BRAF V600E, 2 hours, residual protein remaining, read-out: HiBiT-Degradation A375.10 BRAF 2 hours Emax
[4] = read-out: HiBiT-Degradation A375.10 BRAF 2 hours Emax, A375.10 cells, BRAF V600E, 2 hours, residual protein remaining
[5] = A375.10 cells, BRAF V600E, 2 hours, residual protein remaining

T1 sequence (P15056 whole entry V600E): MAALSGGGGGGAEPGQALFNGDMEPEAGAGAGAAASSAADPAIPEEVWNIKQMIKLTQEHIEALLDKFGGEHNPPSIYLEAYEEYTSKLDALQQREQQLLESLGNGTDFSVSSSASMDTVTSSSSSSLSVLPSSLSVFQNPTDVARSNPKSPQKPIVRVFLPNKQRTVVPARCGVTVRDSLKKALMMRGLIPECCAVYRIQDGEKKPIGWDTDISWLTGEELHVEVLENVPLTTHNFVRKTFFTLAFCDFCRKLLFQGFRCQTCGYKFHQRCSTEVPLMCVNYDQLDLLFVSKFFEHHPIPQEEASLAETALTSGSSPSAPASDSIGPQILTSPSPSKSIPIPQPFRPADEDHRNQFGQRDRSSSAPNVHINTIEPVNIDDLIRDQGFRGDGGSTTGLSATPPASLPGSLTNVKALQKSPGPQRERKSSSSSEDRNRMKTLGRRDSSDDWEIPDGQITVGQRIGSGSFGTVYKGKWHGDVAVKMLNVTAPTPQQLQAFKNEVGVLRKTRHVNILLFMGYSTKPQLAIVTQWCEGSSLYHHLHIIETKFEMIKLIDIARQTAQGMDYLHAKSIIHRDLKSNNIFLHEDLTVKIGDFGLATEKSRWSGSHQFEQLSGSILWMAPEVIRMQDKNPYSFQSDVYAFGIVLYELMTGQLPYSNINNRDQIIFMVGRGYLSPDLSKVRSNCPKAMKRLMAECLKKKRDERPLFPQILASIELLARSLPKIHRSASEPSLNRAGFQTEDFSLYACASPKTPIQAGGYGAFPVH
T1 sequence (Q96SW2 whole entry): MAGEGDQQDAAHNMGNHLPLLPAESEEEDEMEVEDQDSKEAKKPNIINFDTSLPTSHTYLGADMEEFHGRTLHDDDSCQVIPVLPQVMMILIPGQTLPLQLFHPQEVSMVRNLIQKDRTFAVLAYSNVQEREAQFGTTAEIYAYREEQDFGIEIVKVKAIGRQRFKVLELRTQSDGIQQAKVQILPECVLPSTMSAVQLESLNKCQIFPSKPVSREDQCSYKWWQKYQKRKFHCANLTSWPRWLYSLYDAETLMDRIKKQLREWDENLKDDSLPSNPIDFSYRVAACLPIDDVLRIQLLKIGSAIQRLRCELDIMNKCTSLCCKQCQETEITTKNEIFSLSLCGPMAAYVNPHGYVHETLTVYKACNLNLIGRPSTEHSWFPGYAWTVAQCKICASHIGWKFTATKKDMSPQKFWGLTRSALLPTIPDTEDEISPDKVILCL
T1 sequence (Q16531 whole entry partner): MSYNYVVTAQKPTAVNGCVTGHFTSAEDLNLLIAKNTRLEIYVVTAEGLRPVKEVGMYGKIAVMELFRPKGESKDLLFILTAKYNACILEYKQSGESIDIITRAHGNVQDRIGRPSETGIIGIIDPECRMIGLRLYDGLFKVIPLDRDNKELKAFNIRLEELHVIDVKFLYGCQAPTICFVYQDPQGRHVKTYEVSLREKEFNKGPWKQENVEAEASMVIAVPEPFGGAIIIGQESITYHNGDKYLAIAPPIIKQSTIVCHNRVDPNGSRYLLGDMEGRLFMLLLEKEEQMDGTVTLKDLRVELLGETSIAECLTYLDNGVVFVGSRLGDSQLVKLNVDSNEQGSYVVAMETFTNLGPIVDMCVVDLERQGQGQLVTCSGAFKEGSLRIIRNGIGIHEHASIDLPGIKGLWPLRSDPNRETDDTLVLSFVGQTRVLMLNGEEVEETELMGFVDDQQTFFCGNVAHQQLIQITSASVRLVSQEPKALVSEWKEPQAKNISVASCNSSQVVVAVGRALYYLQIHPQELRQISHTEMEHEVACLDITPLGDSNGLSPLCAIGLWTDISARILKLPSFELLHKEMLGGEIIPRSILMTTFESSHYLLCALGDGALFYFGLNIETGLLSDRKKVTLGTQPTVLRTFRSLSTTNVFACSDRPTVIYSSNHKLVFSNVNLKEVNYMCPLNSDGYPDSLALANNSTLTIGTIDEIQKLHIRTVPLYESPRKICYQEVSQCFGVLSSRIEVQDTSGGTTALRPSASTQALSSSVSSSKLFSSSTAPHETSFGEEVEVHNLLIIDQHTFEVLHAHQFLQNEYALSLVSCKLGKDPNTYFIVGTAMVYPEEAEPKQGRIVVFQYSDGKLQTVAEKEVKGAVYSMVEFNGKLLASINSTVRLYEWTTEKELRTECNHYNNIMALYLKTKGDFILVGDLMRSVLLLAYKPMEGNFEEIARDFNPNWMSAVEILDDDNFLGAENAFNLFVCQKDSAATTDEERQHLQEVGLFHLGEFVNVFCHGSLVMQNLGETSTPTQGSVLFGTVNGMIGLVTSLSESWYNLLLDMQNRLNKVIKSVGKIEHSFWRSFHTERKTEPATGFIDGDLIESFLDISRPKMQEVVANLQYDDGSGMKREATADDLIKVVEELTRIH

- HiBiT-Degradation A375.10 BRAF 2 hours Emax (BRAF V600E): ** (<90% and >50%)
- DC50 (BRAF V600E; [1]): < 1000 nM
- DC50 (BRAF V600E; [2]): < 1000 nM
- GI50 (A375-NRAS^Q61K cells): > 10 µM
Compound: CCN(C)S(=O)(=O)Nc1ccc(F)c(Oc2ccc3ncn([C@H]4COC5(CCC(N6CC7(CN(c8ccc(NC9CCC(=O)NC9=O)cc8F)C7)C6)CC5)C4)c(=O)c3c2)c1C#N (single isomer, unassigned) [Compound 192]
- CTGlo A375.11 96 hours Emax (A375-NRAS^Q61K cells): *** (<=50%)

- Emax (BRAF V600E; [3]): 50 to 90%
- DC50 (BRAF V600E; read-out: HiBiT-Degradation A375.10 BRAF 2 hours DC50, A375.10 cells, BRAF V600E, 2 hours): > 10000 nM
- DC50 (BRAF V600E; read-out: HiBiT-Degradation A375.10 BRAF 2 hours IP, A375.10 cells, BRAF V600E, 2 hours, inflection point): < 1000 nM
- GI50 (A375-NRAS^Q61K cells; Homo sapiens, 96 h): 1 to 10 µM
Compound: CCN(C)S(=O)(=O)Nc1ccc(F)c(Oc2ccc3ncn([C@H]4COC5(CCN(C6CC7(C6)CN(c6ccc(NC8CCC(=O)NC8=O)cc6F)C7)CC5)C4)c(=O)c3c2)c1F (stereo partly drawn) [Compound 193, (3R)-8-[2-[4-[(2,6-dioxo-3-piperidyl)amino]-2-fluoro-phenyl]-2-azaspiro[3.3]heptan-6-yl]-3-[6-[3-[[ethyl(methyl)sulfamoyl]amino]-2,6-difluoro-phenoxy]-4-oxo-quinazolin-3-yl]-1-oxa-8-azaspiro[4.5]decane]
- Emax (A375-NRAS^Q61K cells; Homo sapiens, 96 h): 50 to 90%

- DC50 (BRAF V600E; [1]): < 1000 nM
- DC50 (BRAF V600E; [2]): < 1000 nM
- DC50 (BRAF V600E; A375.10 cells, HiBiT, BRAF V600E, 24 hours, read-out: HiBiT-Degradation A375.10 BRAF 24 hours DC50): < 1000 nM
- Emax (BRAF V600E; A375.10 cells, HiBiT, BRAF V600E, 24 hours, read-out: HiBiT-Degradation A375.10 BRAF 24 hours Emax): < 50%
- DC50 (BRAF V600E; A375.10 cells, HiBiT, BRAF V600E, 24 hours, read-out: HiBiT-Degradation A375.10 BRAF 24 hours IP): < 1000 nM
- Emax (BRAF V600E; [4]): < 50%
- GI50 (A375-NRAS^Q61K cells): > 10 µM
Compound: CCN(C)S(=O)(=O)Nc1ccc(F)c(Oc2ccc3ncn(C4CC5(C4)CN(C4CCC(c6cc7c(cc6F)c(N6CCC(=O)NC6=O)nn7C)CC4)C5)c(=O)c3c2)c1C#N (single isomer, unassigned) [Compound 203, 6-[2-cyano-3-[[ethyl(methyl)sulfamoyl]amino]-6-fluoro-phenoxy]-3-[2-[4-[3-(2,4-dioxohexahydropyrimidin-1-yl)-5-fluoro-1-methyl-indazol-6-yl]cyclohexyl]-2-azaspiro[3.3]heptan-6-yl]-4-oxo-quinazoline]
- Emax (A375-NRAS^Q61K cells; Homo sapiens, 96 h): 50 to 90%

- DC50 (BRAF V600E; [1]): < 1000 nM
- DC50 (BRAF V600E; [2]): < 1000 nM
- Emax (BRAF V600E; [3]): < 50%
- GI50 (A375-NRAS^Q61K cells): < 1 µM
Compound: CCN(C)S(=O)(=O)Nc1ccc(F)c(Oc2ccc3ncn(C4CCC5(CC4)CCN(C4CCC(c6cc7c(cc6F)c(N6CCC(=O)NC6=O)nn7C)CC4)CC5)c(=O)c3c2)c1C#N (single isomer, unassigned) [Compound 12]
- Emax (A375-NRAS^Q61K cells; Homo sapiens, 96 h): < 50%

More lines, now with the values behind:

Compound: N#Cc1c(NS(=O)(=O)C2CCCC2)ccc(F)c1Oc1ccc2ncn([C@H]3COC4(CCN(C5CCC(c6ccc(NC7CCC(=O)NC7=O)cc6F)CC5)CC4)C3)c(=O)c2c1 (single isomer, unassigned) [Compound 136]
- DC50 (BRAF V600E; [1]): < 1000 nM
- DC50 (BRAF V600E; [2]): < 1000 nM
- Emax (BRAF V600E; [3]): < 50%
- GI50 (A375-NRAS^Q61K cells; Homo sapiens, 96 h): < 1 µM
- Emax (A375-NRAS^Q61K cells; Homo sapiens, 96 h): < 50%

Compound: CCN(C)S(=O)(=O)Nc1ccc(F)c(Oc2ccc3ncn([C@H]4COC5(CCC(N6CC[C@@H](c7ccc(NC8CCC(=O)NC8=O)cc7F)C(F)(F)C6)CC5)C4)c(=O)c3c2)c1C#N (stereo partly drawn) [Compound 189, 6-[2-cyano-3-[[ethyl(methyl)sulfamoyl]amino]-6-fluoro-phenoxy]-3-[(3R)-8-[(4S)-4-[4-[(2,6-dioxo-3-piperidyl)amino]-2-fluoro-phenyl]-3,3-difluoro-1-piperidyl]-1-oxaspiro[4.5]decan-3-yl]-4-oxo-quinazoline]
- DC50 (BRAF V600E; [1]): < 1000 nM
- DC50 (BRAF V600E; [2]): < 1000 nM
- Emax (BRAF V600E; [4]): 50 to 90%
- GI50 (A375-NRAS^Q61K cells; Homo sapiens, 96 h): > 10 µM
- Emax (A375-NRAS^Q61K cells; Homo sapiens, 96 h): < 50%

Compound: CCN(C)S(=O)(=O)Nc1ccc(F)c(Oc2ccc3ncnc(OC4CC5(C4)CN(C4CCC(c6cc7c(cc6F)c(N6CCC(=O)NC6=O)nn7C)CC4)C5)c3c2)c1C#N (single isomer, unassigned) [Compound 233, 6-[2-cyano-3-[[ethyl(methyl)sulfamoyl]amino]-6-fluoro-phenoxy]-4-[[2-[4-[3-(2,4-dioxohexahydropyrimidin-1-yl)-5-fluoro-1-methyl-indazol-6-yl]cyclohexyl]-2-azaspiro[3.3]heptan-6-yl]oxy]quinazoline]
- HiBiT-Degradation A375.10 BRAF 2 hours Emax (BRAF V600E): ** (<90% and >50%)
- DC50 (BRAF V600E; [1]): < 1000 nM
- DC50 (BRAF V600E; [2]): < 1000 nM
- GI50 (A375-NRAS^Q61K cells): > 10 µM
- CTGlo A375.11 96 hours Emax (A375-NRAS^Q61K cells): ** (<90% and >50%)

Compound: CN(CCO)S(=O)(=O)Nc1ccc(F)c(Oc2ccc3ncn(C4CC5(CCN(C6CCC(c7ccc(NC8CCC(=O)NC8=O)cc7F)CC6)CC5)C4)c(=O)c3c2)c1C#N (single isomer, unassigned) [Compound 80, 6-[2-cyano-6-fluoro-3-[[2-hydroxyethyl(methyl)sulfamoyl]amino]phenoxy]-3-[7-[4-[4-[(2,6-dioxo-3-piperidyl)amino]-2-fluoro-phenyl]cyclohexyl]-7-azaspiro[3.5]nonan-2-yl]-4-oxo-quinazoline]
- DC50 (BRAF V600E; [1]): < 1000 nM
- DC50 (BRAF V600E; [2]): > 10000 nM
- HiBiT-Degradation A375.10 BRAF 2 hours Emax (BRAF V600E; [5]): ** (<90% and >50%)
- GI50 (A375-NRAS^Q61K cells): > 10 µM
- CTGlo A375.11 96 hours Emax (A375-NRAS^Q61K cells): ** (<90% and >50%)

Compound: CCN(C)S(=O)(=O)Nc1ccc(F)c(Oc2ccc3ncc(OC4CC5(C4)CN(C4CCC(c6cc7c(cc6F)c(N6CCC(=O)NC6=O)nn7C)CC4)C5)nc3c2)c1C#N (single isomer, unassigned) [Compound 281, 7-[2-cyano-3-[[ethyl(methyl)sulfamoyl]amino]-6-fluoro-phenoxy]-2-[[2-[4-[3-(2,4-dioxohexahydropyrimidin-1-yl)-5-fluoro-1-methyl-indazol-6-yl]cyclohexyl]-2-azaspiro[3.3]heptan-6-yl]oxy]quinoxaline]
- DC50 (BRAF V600E; [1]): < 1000 nM
- DC50 (BRAF V600E; [2]): > 10000 nM
- Emax (BRAF V600E; [3]): 50 to 90%
- GI50 (A375-NRAS^Q61K cells; Homo sapiens, 96 h): < 1 µM
- Emax (A375-NRAS^Q61K cells; Homo sapiens, 96 h): < 50%

Compound: CCN(C)S(=O)(=O)Nc1ccc(F)c(Oc2ccc3ncn([C@H]4COC5(CCC(N6CC7(CN(c8ccc(NC9CCC(=O)NC9=O)cc8F)C7)C6)CC5)C4)c(=O)c3c2)c1C#N (single isomer, unassigned) [Compound 191]
- DC50 (BRAF V600E; [1]): < 1000 nM
- DC50 (BRAF V600E; [2]): < 1000 nM
- Emax (BRAF V600E; [4]): < 50%
- GI50 (A375-NRAS^Q61K cells): < 1 µM
- Emax (A375-NRAS^Q61K cells; Homo sapiens, 96 h): < 50%

Compound: CCN(C)S(=O)(=O)Nc1ccc(F)c(Oc2ccc3ncn([C@@H]4CCC5(CCN(C6CCC(c7cc8c(cc7F)c(N7CCC(=O)NC7=O)nn8C)CC6)CC5)C4)c(=O)c3c2)c1C#N (single isomer, unassigned) [Compound 32]
- HiBiT-Degradation A375.10 BRAF 2 hours Emax (BRAF V600E): ** (<90% and >50%)
- DC50 (BRAF V600E; [1]): < 1000 nM
- DC50 (BRAF V600E; [2]): < 1000 nM
- GI50 (A375-NRAS^Q61K cells): 1 to 10 µM
- CTGlo A375.11 96 hours Emax (A375-NRAS^Q61K cells): *** (<=50%)

Compound: CN(CCO)S(=O)(=O)Nc1ccc(F)c(Oc2ccc3ncc(C4CC5(CCN(C6CCC(c7cc8c(cc7F)c(N7CCC(=O)NC7=O)nn8C)CC6)CC5)C4)nc3c2)c1C#N (single isomer, unassigned) [Compound 295, 7-[2-cyano-6-fluoro-3-[[2-hydroxyethyl(methyl)sulfamoyl]amino]phenoxy]-2-[7-[4-[3-(2,4-dioxohexahydropyrimidin-1-yl)-5-fluoro-1-methyl-indazol-6-yl]cyclohexyl]-7-azaspiro[3.5]nonan-2-yl]quinoxaline]
- DC50 (BRAF V600E; [1]): < 1000 nM
- DC50 (BRAF V600E; [2]): < 1000 nM
- HiBiT-Degradation A375.10 BRAF 2 hours Emax (BRAF V600E; [5]): ** (<90% and >50%)
- GI50 (A375-NRAS^Q61K cells): 1 to 10 µM
- CTGlo A375.11 96 hours Emax (A375-NRAS^Q61K cells): * (>=90%)

Compound: CN(CCO)S(=O)(=O)Nc1ccc(F)c(Oc2ccc3ncn([C@H]4COC5(CCC(N6CCC(c7cc8c(cc7F)c(N7CCC(=O)NC7=O)nn8C)C(F)(F)C6)CC5)C4)c(=O)c3c2)c1C#N (single isomer, unassigned) [Compound 214]
- DC50 (BRAF V600E; [1]): < 1000 nM
- DC50 (BRAF V600E; [2]): < 1000 nM
- HiBiT-Degradation A375.10 BRAF 2 hours Emax (BRAF V600E; [5]): *** (<=50%)
- GI50 (A375-NRAS^Q61K cells): < 1 µM
- CTGlo A375.11 96 hours Emax (A375-NRAS^Q61K cells): *** (<=50%)
